Experimental data published in PMC3495596 (Journal of medicinal chemistry, 2012).

Tests used:
thermolysin [1] = target: T1, thermolysin (Bacillus thermoproteolyticus, UniProt P00800); type: binding
thermolysin [2] = target: T1, thermolysin; type: biochemical; conditions: free energy of binding corresponding to Ki

T1 sequence (P00800 233-548): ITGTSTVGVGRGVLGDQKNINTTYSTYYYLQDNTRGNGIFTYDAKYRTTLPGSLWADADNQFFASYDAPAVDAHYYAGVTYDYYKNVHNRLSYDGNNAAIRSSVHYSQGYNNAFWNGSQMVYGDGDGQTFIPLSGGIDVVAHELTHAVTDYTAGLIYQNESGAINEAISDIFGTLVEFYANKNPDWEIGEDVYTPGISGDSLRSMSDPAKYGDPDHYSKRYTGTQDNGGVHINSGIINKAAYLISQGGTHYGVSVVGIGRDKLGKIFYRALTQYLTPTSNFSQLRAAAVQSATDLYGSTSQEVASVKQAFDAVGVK

SMILES	ΔΔH (thermolysin [1]) [kcal/mol]	ΔGKi (thermolysin [2]) [kcal/mol]
CC(C)C[C@H](NP(=O)([O-])CNC(=O)OCc1ccccc1)C(=O)N[C@@H](C)C(=O)[O-].[Li+].[Li+] [Compound 8b, N-(N-(N-(benzyloxycarbonyl)-aminomethylphosphonyl)-L-leucinyl)-alaninate di-Lithium]	-3.18	-10.5
CCNC(=O)[C@H](CC(C)C)NP(=O)([O-])CNC(=O)OCc1ccccc1.[Li+] [Compound 8d, N-(N-(benzyloxycarbonyl)-aminomethylphosphonyl)-N′-ethyl-L-leucinamide lithium]	–	-8.91
CNC(=O)[C@H](CC(C)C)NP(=O)([O-])CNC(=O)OCc1ccccc1.[Li+] [Compound 8c, N-(N-(benzyloxycarbonyl)-aminomethylphosphonyl)-N′-methyl-L-leucinamide lithium]	–	-8.25
CC(C)C[C@H](NP(=O)([O-])CNC(=O)OCc1ccccc1)C(=O)NCC(=O)[O-].[Li+].[Li+] [Compound 8a, N-(N-(N-(benzyloxycarbonyl)-aminomethylphosphonyl)-L-leucinyl)-glycinate di-lithium]	–	-8.63
